Where two headings read alike, the source gives them in different places.
Assays:
PTP1B-FL = PTP1B-FL (Homo sapiens, UniProt P18031); test: cell-based
CD45 = format: cell-based
[1] = system: PTPs (PTP1B-FL, CD45-cat and CD45-FL); format: cell-based
recombinant PTP1B = conditions: oxidizing its catalytic site cysteine; cited from earlier work
CD45-cat = format: cell-based; conditions: infected sf9 cells, 10 mM pNPP
[2] = system: background phosphatases in mock-infected sf9 cells; format: cell-based, fall armyworm Spodoptera; conditions: for effect on background phosphatases: infected sf9 cells, 10 mM pNPP
PTP = conditions: cited from earlier work

Sequence of PTP1B-FL (P18031 whole entry): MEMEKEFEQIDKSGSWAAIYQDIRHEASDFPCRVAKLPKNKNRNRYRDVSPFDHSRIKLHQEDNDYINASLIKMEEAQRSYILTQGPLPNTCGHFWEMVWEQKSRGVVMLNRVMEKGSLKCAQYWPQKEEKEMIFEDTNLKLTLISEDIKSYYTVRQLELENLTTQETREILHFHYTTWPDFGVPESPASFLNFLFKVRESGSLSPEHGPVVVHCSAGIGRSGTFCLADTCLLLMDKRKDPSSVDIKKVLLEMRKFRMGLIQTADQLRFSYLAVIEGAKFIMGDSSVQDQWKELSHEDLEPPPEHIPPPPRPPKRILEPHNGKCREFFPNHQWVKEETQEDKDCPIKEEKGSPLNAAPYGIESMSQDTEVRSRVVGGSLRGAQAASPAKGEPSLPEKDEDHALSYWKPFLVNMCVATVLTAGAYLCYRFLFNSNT

OO [hydrogen peroxide]
IC50 (PTP1B-FL): 10 to 15 µM | IC50 (CD45; read-out: IC50 range): 10 to 15 µM | potency and selectivity in words ([1]; intact sf9 cells, 10 mM pNPP): limited potency and selectivity | IC50 ([1]; read-out: IC50 values in the range of): 7 to 16 µM | inactivation of recombinant PTP1B in vitro (recombinant PTP1B): inactivate recombinant PTP1B in vitro

C=C1[C@@H](O)[C@@H]2O[C@]3(CC[C@H](/C=C/[C@@H](C)[C@@H]4CC(C)=C[C@@]5(O[C@H](C[C@@](C)(O)C(=O)O)CC[C@H]5O)O4)O3)CC[C@H]2O[C@@H]1[C@@H](O)C[C@H](C)[C@H]1O[C@@]2(CCCCO2)CC[C@H]1C [okadaic acid]
effect on CD45-cat phosphatase (CD45-cat; okadaic acid at 6.7 μM): Neither ouabain at 1 mM or okadaic acid at 6.7 μM had any effect | effect on background phosphatases ([2]; okadaic acid at 6.7 μM): Neither ouabain at 1 mM or okadaic acid at 6.7 μM had any effect | effect on pNPP hydrolysis [1]: had no effect

C[C@@H]1O[C@@H](O[C@H]2C[C@@H](O)[C@]3(CO)[C@H]4[C@H](O)C[C@]5(C)[C@@H](C6=CC(=O)OC6)CC[C@]5(O)[C@@H]4CC[C@]3(O)C2)[C@H](O)[C@H](O)[C@H]1O [ouabain]
effect on CD45-cat phosphatase (CD45-cat; ouabain at 1 mM): Neither ouabain at 1 mM or okadaic acid at 6.7 μM had any effect | inhibition of background infected cells [2]: no inhibition up to 1 mM | effect on background phosphatases ([2]; ouabain at 1 mM): Neither ouabain at 1 mM or okadaic acid at 6.7 μM had any effect | inhibition of CD45 expressing cells (CD45): no inhibition up to 1 mM

[Na+].[Na+].[Na+].[O]=[V]([O-])([O-])[O-] [vanadate, sodium orthovanadate]
IC50 [2]: 1600 nM | mode of binding at active site (PTP): competitively and reversibly bound at the active site
